pIC50: −log10 of the molar value.
What was measured:
[1] = test system: BV-2; assay: Inhibition of LPS-stimulated NO production in […] cells after 24 hrs by Griess assay; type: functional, cell-based; conditions: Mus musculus, BV-2, 24 h
[2] = Cytotoxicity against LPS-stimulated […] cells assessed as cell viability at 40 uM by MTT assay; type: cell-based, BV-2; conditions: read-out: Activity

| Structure (SMILES) | pIC50 [1] | viability at 40 µM [2] [%] |
| --- | --- | --- |
| C=C(C(=O)O)[C@@H]1CC[C@H](C)[C@@H]2CC[C@](C)(O)[C@@]2(O)C1 | 5.59 | 78.8 |
| O=c1c(O)c(-c2ccc(O)c(O)c2)oc2cc(O)cc(O)c12 [QUERCETIN] | 5.37 | 97 |
| CC1=C2C[C@H](C(=O)O)CC[C@H](C)[C@@H]2CC1=O | 5.05 | 77.6 |

More lines, main results first:

| pIC50 [1] | Structure (SMILES) | viability at 40 µM [2] [%] |
| --- | --- | --- |
| 4.69 | C=C(C(=O)O)[C@@H]1CC[C@H](C)[C@H]2C(=O)C=C(C)[C@]2(O)C1 | 76.1 |
| 4.61 | C=C(C(=O)O)[C@@H]1CC[C@H](C)C2=C(C1)[C@](C)(O)CC2=O | 77 |
| 4.54 | C=C(C(=O)O)[C@@H]1CC[C@H](C)[C@@]2(O)CC(=O)C(C)=C2C1 | 83.4 |
| 5.66 | C=C(C(=O)O)[C@@H]1CC[C@H](C)[C@H](CCC(C)=O)C(=O)C1 | 76.6 |

Reference: ChEMBL document CHEMBL3351802, “Rupestonic acids B-G, NO inhibitory sesquiterpenoids from Artemisia rupestris” (Bioorg Med Chem Lett, 2014)
